Test [1] deals with NCI-H292 lung cancer cells. The test is described as follows: FDA drug screening, complete media vs cholesterol-free media without statin (TABLE 1). It counts as cell-based, human. Conditions: for Difference: about 0 neutral.
Test [2] has as its system NCI-H292 lung cancer cells. The test is described as follows: FDA drug screening, complete media vs cholesterol-free media with simvastatin (TABLE 2). It counts as cell-based, human. Conditions: for Cholesterol-free media + simvastatin (0.04 μM) / Complete Media: NCI-H292 cells; for Difference: >0 enhanced anti-cancer activity, about 0 neutral, <0 antagonist.
[3] abbreviates: NCI-H292 cells, cholesterol-free media without statin, FDA drug library screen.
The mark [4] stands for this setting: NCI-H292 cells, complete media, FDA drug library screen.
Where [5] appears, read: complete vs cholesterol-free media, >0 enhanced anti-cancer activity, <0 antagonist.
Setting [6] is: cholesterol-free media with simvastatin 0.04 μM, FDA drug library screen (TABLE 2).
Setting [7] is: complete media minus cholesterol-free media + simvastatin (0.04 μM).
The mark [8] stands for this setting: Complete minus Cholesterol-free, greater than 0 enhanced anti-cancer activity, below 0 antagonists.
Where [9] appears, read: NCI-H292 cells in cholesterol-free media without statin.
[10] abbreviates: NCI-H292 cells in complete media.
The mark [11] stands for this setting: FDA library drug in cholesterol-free media with simvastatin 0.04 μM.
Setting [12] is: FDA library drug in complete media.
The mark [13] stands for this setting: complete media vs cholesterol-free media + simvastatin (0.04 μM).
Where [14] appears, read: Complete minus Cholesterol-free, >0 enhanced anti-cancer activity, <0 antagonist.
The mark [15] stands for this setting: cholesterol-free media with simvastatin 0.04 μM, cell growth value in FDA drug screen.
[16] abbreviates: complete media, cell growth value in FDA drug screen.
Setting [17] is: complete media minus cholesterol-free media + simvastatin.
The mark [18] stands for this setting: NCI-H292 cells, cholesterol-free media without statin.
[19] abbreviates: drug in cholesterol-free media with simvastatin 0.04 μM.
The mark [20] stands for this setting: FDA drug library screen, cholesterol-free media with simvastatin 0.04 μM.
[21] abbreviates: FDA drug library screen, complete media.

Structures can show the parent of a compound that is named as a salt.

In test [1] (setting [3]), `COc1cc(C=O)ccc1O` [Vanillin] registered a Cholesterol-free of 0.7241. The Complete in test [1] (setting [4]) was determined as 0.863. Also, the figures for the Difference in test [1] (setting [5]) and in test [2] (setting [7]) were 0.14 and 0.02, respectively. The “Cholesterol-free media + simvastatin (0.04 μM)” value in test [2] (setting [6]) turned out to be 1.042. Further, in test [2] (complete media, FDA drug library screen (TABLE 2)), the “Complete Media” value amounted to 1.057.

As to `CO[C@@]1(NC(=O)C(C(=O)O)c2ccc(O)cc2)C(=O)N2C(C(=O)O)=C(CSc3nnnn3C)CO[C@@H]21` (some centres unmarked) [Moxalactam (sodium salt)], the Difference is −0.79 in test [1] (setting [8]) and −0.90 in test [2] (setting [13]). The compound further displayed a Cholesterol-free in test [1] (setting [9]) of 1.849. In addition, in test [1] (setting [10]), the Complete is reported as 1.058. For the same compound, in test [2] (setting [11]), the “Cholesterol-free media + simvastatin (0.04 μM)” value is 1.994. Also, in test [2] (setting [12]), the “Complete Media” value came to 1.097.

Regarding `N[C@@H](Cc1cc(I)c(Oc2cc(I)c(O)c(I)c2)c(I)c1)C(=O)O.[Na]` [L-Thyroxine (sodium)], the Difference in test [1] (setting [14]) was −0.07; in test [2] (setting [17]), 0.02. The compound further displayed a Cholesterol-free in test [1] (setting [3]) of 1.137. Besides, the Complete in test [1] (setting [4]) came to 1.071. The “Cholesterol-free media + simvastatin (0.04 μM)” value in test [2] (setting [15]) is 0.8676. Further, the “Complete Media” value in test [2] (setting [16]) came out at 0.8889.

With Indinavir (sulfate), the Difference in test [1] (setting [8]) was −0.65; in test [2] (setting [7]), 0.01. The same compound registered a Cholesterol-free in test [1] (setting [9]) of 1.599. For the same compound, the Complete in test [1] (setting [10]) is given as 0.946. Also, in test [2] (setting [6]), the “Cholesterol-free media + simvastatin (0.04 μM)” value was found to be 0.8636.

Regarding `O=C1CN2Cc3c(ccc(Cl)c3Cl)N=C2N1` [Anagrelide (hydrochloride)], the Difference is given as −0.26 in test [1] (setting [14]) and −0.27 in test [2] (setting [13]). The compound also returned a Cholesterol-free in test [1] (setting [18]) of 0.988. This compound also gave a Complete in test [1] (NCI-H292 cells, complete media) of 0.7326. Besides, the “Cholesterol-free media + simvastatin (0.04 μM)” value in test [2] (setting [11]) is reported as 1.221. Also, in test [2] (setting [12]), the “Complete Media” value was determined as 0.9483.

In turn, `CCOC(=O)[C@H](CCc1ccccc1)N[C@H]1CCCN2CCC[C@@H](C(=O)O)N2C1=O` [Cilazapril (monohydrate)] yielded a Cholesterol-free in test [1] (setting [3]) of 0.8411. In addition, in test [1] (setting [4]), the Complete came out at 0.9896. Further, the Difference in test [1] (setting [5]) was 0.15; in test [2] (setting [13]), −0.16. In addition, in test [2] (setting [19]), the “Cholesterol-free media + simvastatin (0.04 μM)” value was 1.266. For the same compound, the “Complete Media” value in test [2] (drug in complete media) is reported as 1.104.

With `CC(=O)O[C@]1(C(C)=O)CC[C@H]2[C@@H]3C=C(Cl)C4=CC(=O)[C@@H]5C[C@@H]5[C@]4(C)[C@H]3CC[C@@]21C` [Cyproterone acetate], the results for the Difference in test [1] (setting [8]) and in test [2] (setting [17]) were −1.74 and 0.07, respectively. The Cholesterol-free in test [1] (setting [9]) is 2.754. The compound further showed a Complete in test [1] (setting [10]) of 1.015. Besides, in test [2] (setting [15]), the “Cholesterol-free media + simvastatin (0.04 μM)” value is recorded as 1.003. In test [2] (setting [16]), the “Complete Media” value was determined as 1.068.

Consider `CCCCCCCCc1ccc(CCC(N)(CO)CO)cc1` [Fingolimod], for which the Difference in test [1] (setting [8]) is −0.48; in test [2] (setting [13]) it was −0.14. This compound also came in with a Cholesterol-free in test [1] (setting [9]) of 1.481. In test [1] (setting [10]), this compound had a Complete of 0.9982. The “Cholesterol-free media + simvastatin (0.04 μM)” value in test [2] (setting [20]) stood at 1.233. For the same compound, the “Complete Media” value in test [2] (setting [21]) worked out at 1.097.

In the case of `N=C(N)NC(=O)c1nc(Cl)c(N)nc1N` [Amiloride (hydrochloride)], the Difference in test [1] (Complete minus Cholesterol-free, greater than 0 enhanced anti-cancer activity, below 0 antagonist) is on record as −0.17; in test [2] (setting [13]) it was −0.14. For the same compound, the Cholesterol-free in test [1] (NCI-H292 cells, FDA drug library screen, cholesterol-free media without statin) is 1.642. Moreover, the Complete in test [1] (NCI-H292 cells, FDA drug library screen, complete media) turned out to be 1.47. In test [2] (setting [20]), the “Cholesterol-free media + simvastatin (0.04 μM)” value was found to be 1.016. For the same compound, the “Complete Media” value in test [2] (setting [21]) is listed as 0.8717.

For `CC(N)CCCC(C)(C)O` (centres unmarked) [Heptaminol (hydrochloride)], the results for the Difference in test [1] (setting [14]) and in test [2] (setting [13]) were −0.27 and −0.22, respectively. This compound showed a Cholesterol-free in test [1] (setting [18]) of 0.8584. Besides, the Complete in test [1] (NCI-H292 cells, complete media) is recorded as 0.5894. For the same compound, the “Cholesterol-free media + simvastatin (0.04 μM)” value in test [2] (setting [19]) is recorded as 1.069. In addition, the “Complete Media” value in test [2] (drug in complete media) worked out at 0.8484.

(Values after patent US20250144067A1, “PERSONALIZED STARVATION THERAPY FOR CANCER” (Faeth Therapeutics, Inc., priority 2021, published 2025).)
